Test results from the kinase profiling compilation of Christmann-Franck et al. (2016).
Where “and” joins values, the source holds several entries; their conditions need not be identical. Equal entries are not always repeated.

Legend:
Assay in all cases: radiometric filter-binding kinase assay, Kinase HotSpot
Settings in all cases: compound 0.5 µM; ATP 10 µM
[1] = target: MELK (human) (UniProt Q14680)
[2] = target: EPHA3 (human) (UniProt P29320)
[3] = target: PNCK (human) (UniProt Q6P2M8)
[4] = target: PKN1 (human) (UniProt Q16512)
[5] = target: GRK6 (human) (UniProt P43250)
[6] = target: SYK (human) (UniProt P43405)
[7] = target: PRKCE (human) (UniProt Q02156)
[8] = target: CAMK2G (human) (UniProt Q13555)
[9] = target: MAPK3 (human) (UniProt P27361)
[10] = target: ULK3 (human) (UniProt Q6PHR2)
[11] = target: ROS1 (human) (UniProt P08922)
[12] = target: CAMKK1 (human) (UniProt Q8N5S9)
[13] = target: PRKG1 (human) (UniProt Q13976)
[14] = target: PLK3 (human) (UniProt Q9H4B4)
[15] = target: PAK1 (human) (UniProt Q13153)
[16] = target: PRKCH (human) (UniProt P24723)
[17] = target: FRK (human) (UniProt P42685)
[18] = target: GSK3B (human) (UniProt P49841)
[19] = target: ULK1 (human) (UniProt O75385)
[20] = target: CHEK2 (human) (UniProt O96017)
[21] = target: FGR (human) (UniProt P09769)
[22] = target: RPS6KB1 (human) (UniProt P23443)
[23] = target: DYRK1B (human) (UniProt Q9Y463)
[24] = target: NTRK1 (human) (UniProt P04629)
[25] = target: MAPKAPK3 (human) (UniProt Q16644)
[26] = target: FGFR2 (human) (UniProt P21802)
[27] = target: MYLK2 (human) (UniProt Q9H1R3)
[28] = target: CDK1 CCNB1 (human) (UniProt P06493+P14635)
[29] = target: FYN (human) (UniProt P06241)
[30] = target: LTK (human) (UniProt P29376)
[31] = target: CDK9 CCNK (human) (UniProt O75909+P50750)
[32] = target: EPHA1 (human) (UniProt P21709)
[33] = target: MAP3K2 (human) (UniProt Q9Y2U5)
[34] = target: CDK5 CDK5R1 p35 (human) (UniProt Q00535+Q15078)
[35] = target: DAPK3 (human) (UniProt O43293)
[36] = target: PAK7 (human) (UniProt Q9P286)
[37] = target: AURKA (human) (UniProt O14965)
[38] = target: MYO3B (human) (UniProt Q8WXR4)
[39] = target: CSNK1G2 (human) (UniProt P78368)
[40] = target: MAPK14 (human) (UniProt Q16539)
[41] = target: MARK1 (human) (UniProt Q9P0L2)
[42] = target: CAMKK2 (human) (UniProt Q96RR4)

Chain of PAK7 (human) (Q9P286 whole entry, looked up): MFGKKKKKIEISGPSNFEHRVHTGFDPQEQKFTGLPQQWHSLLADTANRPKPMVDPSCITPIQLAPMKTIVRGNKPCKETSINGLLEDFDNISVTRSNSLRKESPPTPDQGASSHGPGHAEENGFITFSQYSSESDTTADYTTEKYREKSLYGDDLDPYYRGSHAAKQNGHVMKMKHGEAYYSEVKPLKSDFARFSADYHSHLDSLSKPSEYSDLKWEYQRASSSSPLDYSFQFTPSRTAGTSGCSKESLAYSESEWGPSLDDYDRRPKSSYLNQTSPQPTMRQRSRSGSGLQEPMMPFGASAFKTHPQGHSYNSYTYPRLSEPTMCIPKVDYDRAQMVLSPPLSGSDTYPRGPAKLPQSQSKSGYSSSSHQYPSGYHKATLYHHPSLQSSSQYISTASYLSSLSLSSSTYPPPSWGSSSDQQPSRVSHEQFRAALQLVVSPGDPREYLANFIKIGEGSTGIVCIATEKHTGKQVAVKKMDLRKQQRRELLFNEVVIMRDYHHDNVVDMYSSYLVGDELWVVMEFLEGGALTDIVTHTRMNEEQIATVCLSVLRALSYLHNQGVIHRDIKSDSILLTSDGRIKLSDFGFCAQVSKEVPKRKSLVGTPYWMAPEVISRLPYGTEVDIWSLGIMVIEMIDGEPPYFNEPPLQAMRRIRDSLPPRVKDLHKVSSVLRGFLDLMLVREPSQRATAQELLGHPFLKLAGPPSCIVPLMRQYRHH
Chain of CSNK1G2 (human) (P78368 whole entry, looked up): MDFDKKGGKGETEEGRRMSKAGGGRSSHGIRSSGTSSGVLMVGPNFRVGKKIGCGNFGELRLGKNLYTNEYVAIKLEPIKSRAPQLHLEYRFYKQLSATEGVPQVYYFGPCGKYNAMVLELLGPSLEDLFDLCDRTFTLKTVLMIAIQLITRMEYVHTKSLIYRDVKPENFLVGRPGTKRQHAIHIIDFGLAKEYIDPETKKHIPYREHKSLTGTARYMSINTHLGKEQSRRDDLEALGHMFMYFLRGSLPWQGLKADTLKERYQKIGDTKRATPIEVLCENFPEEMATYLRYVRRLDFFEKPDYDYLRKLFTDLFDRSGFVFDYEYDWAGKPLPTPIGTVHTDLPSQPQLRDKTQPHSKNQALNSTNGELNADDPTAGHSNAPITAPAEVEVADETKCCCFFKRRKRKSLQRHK
Chain of EPHA3 (human) (P29320 whole entry, looked up): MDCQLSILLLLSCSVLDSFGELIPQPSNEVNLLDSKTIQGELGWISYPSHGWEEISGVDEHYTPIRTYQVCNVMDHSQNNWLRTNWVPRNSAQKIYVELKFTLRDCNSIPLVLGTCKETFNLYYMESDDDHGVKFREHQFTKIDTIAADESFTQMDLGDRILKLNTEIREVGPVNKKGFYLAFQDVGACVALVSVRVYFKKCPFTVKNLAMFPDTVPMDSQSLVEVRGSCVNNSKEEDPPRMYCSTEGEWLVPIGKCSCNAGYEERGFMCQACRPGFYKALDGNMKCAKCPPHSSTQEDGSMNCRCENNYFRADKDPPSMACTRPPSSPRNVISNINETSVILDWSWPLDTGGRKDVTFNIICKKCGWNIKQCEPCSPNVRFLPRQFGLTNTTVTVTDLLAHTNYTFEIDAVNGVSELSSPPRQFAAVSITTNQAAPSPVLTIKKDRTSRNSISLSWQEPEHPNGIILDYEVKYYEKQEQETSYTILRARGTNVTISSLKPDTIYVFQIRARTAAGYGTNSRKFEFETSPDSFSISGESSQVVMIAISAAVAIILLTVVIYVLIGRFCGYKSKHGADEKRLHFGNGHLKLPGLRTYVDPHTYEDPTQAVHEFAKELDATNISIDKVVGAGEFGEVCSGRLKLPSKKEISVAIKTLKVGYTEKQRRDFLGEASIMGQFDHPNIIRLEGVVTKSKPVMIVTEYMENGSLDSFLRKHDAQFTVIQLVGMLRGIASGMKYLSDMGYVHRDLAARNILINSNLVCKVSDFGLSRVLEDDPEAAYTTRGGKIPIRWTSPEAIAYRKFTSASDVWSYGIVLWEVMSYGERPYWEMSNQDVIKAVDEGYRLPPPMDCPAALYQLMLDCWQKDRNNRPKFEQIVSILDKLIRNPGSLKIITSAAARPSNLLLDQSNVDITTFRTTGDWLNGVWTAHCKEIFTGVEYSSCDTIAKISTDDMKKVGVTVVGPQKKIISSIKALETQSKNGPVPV
Chain of FGFR2 (human) (P21802 whole entry, looked up): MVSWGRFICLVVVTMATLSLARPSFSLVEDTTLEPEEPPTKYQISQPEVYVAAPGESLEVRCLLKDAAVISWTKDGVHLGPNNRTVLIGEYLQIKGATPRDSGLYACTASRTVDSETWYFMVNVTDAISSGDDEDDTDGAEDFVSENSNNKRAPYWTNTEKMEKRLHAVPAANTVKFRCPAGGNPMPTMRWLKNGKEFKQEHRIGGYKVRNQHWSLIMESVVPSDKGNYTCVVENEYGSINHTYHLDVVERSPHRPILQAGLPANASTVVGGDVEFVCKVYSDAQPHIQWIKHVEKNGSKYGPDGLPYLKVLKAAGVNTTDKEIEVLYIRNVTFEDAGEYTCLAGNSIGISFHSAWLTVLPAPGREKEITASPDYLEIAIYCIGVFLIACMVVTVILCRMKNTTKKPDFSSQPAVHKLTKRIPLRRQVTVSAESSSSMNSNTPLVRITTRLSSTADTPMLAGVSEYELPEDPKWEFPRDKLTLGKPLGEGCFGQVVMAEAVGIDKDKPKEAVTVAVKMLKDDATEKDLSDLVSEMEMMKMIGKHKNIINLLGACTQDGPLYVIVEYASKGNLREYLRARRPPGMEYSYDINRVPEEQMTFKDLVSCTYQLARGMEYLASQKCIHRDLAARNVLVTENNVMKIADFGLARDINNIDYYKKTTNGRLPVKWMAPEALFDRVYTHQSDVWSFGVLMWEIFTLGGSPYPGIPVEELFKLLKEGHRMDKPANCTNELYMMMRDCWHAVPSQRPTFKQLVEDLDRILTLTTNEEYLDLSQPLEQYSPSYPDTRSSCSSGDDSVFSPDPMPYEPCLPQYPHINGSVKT
Chain of MAPK14 (human) (Q16539 whole entry, looked up): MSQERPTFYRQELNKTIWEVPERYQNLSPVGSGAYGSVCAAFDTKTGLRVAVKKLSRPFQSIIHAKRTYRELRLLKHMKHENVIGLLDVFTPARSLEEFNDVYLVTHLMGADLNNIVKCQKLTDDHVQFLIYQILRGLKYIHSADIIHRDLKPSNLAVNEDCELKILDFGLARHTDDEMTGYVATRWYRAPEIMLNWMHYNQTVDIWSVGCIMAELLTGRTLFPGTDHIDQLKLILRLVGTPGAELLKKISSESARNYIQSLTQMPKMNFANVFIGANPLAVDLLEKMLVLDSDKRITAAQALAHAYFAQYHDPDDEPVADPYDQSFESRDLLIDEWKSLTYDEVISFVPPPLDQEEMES
Chain of CHEK2 (human) (O96017 whole entry, looked up): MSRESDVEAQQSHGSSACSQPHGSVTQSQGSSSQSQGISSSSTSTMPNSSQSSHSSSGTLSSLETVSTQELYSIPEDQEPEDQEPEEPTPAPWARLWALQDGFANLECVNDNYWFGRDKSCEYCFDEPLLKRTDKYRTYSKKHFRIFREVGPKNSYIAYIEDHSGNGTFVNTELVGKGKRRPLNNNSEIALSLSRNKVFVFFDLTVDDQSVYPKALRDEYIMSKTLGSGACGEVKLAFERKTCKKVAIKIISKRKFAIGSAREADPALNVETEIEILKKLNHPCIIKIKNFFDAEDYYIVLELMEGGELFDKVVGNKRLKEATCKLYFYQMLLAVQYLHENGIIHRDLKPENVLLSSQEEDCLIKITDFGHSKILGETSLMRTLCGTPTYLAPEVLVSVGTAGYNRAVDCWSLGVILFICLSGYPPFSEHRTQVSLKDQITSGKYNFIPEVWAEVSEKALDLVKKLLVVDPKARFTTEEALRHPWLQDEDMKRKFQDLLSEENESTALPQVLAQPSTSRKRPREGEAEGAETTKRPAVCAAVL
Chain of RPS6KB1 (human) (P23443 whole entry, looked up): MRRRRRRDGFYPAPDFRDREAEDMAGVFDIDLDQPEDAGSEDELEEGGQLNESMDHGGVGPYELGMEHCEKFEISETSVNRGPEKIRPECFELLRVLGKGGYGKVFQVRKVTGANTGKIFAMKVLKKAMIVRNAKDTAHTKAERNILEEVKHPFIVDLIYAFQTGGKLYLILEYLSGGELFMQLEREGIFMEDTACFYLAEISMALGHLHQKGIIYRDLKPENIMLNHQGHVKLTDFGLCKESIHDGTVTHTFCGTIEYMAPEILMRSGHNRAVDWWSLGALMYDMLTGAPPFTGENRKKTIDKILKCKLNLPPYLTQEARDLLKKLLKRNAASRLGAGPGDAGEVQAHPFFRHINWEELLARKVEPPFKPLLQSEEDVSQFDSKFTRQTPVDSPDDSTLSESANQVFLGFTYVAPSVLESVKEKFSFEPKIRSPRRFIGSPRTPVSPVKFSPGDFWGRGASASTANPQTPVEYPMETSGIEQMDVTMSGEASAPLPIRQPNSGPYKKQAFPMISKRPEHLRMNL
Chain of FYN (human) (P06241 whole entry, looked up): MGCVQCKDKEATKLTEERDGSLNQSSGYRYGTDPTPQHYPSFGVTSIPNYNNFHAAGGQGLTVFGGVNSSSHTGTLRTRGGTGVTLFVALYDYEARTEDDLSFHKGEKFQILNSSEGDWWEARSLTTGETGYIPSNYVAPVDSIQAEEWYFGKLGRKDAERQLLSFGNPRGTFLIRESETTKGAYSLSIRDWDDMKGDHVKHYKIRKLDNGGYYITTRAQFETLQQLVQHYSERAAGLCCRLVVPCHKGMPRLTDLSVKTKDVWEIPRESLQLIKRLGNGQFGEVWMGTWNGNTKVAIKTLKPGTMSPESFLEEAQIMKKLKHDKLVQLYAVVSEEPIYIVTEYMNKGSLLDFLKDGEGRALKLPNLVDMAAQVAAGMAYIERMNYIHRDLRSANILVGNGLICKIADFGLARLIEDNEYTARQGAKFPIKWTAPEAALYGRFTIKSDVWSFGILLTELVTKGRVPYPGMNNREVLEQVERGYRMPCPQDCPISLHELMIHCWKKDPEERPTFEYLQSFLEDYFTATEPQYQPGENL

CCC(=O)Nc1ccc2ncnc(Nc3cccc(Br)c3)c2c1
residual activity [1]: 93.4%
residual activity [2]: 106%
residual activity [3]: 96%
residual activity [4]: 101%
residual activity [5]: 97.6%
residual activity [6]: 94.3%
residual activity [7]: 99.7%
residual activity [8]: 105%
residual activity [9]: 101%
residual activity [10]: 97.5%
residual activity [11]: 97.5%
residual activity [12]: 99.8%
residual activity [13]: 101% and 110%
residual activity [14]: 93.2%
residual activity [15]: 96.3%
residual activity [16]: 89.3%
residual activity [17]: 66.8%
residual activity [18]: 91.2%
residual activity [19]: 103%
residual activity [20]: 87.1%
residual activity [21]: 93.2%
residual activity [22]: 91.2%
residual activity [23]: 95.2%
residual activity [24]: 95.8%
residual activity [25]: 90.2%
residual activity [26]: 99.8%
residual activity [27]: 96.4%
residual activity [28]: 89.5%
residual activity [29]: 107%
residual activity [30]: 81%
residual activity [31]: 94.1%
residual activity [32]: 89.5%
residual activity [33]: 76.1%
residual activity [34]: 100%
residual activity [35]: 104%
residual activity [36]: 91.6%
residual activity [37]: 97.4%
residual activity [38]: 135%
residual activity [39]: 98.1%
residual activity [40]: 82.8%
residual activity [41]: 98.5%
residual activity [42]: 84.3%

Nc1ccc2ncnc(NCCc3ccc(Oc4ccccc4)cc3)c2c1
residual activity [1]: 96.8%
residual activity [2]: 102%
residual activity [3]: 98.5%
residual activity [4]: 105%
residual activity [5]: 99.3%
residual activity [6]: 102%
residual activity [7]: 109%
residual activity [8]: 118%
residual activity [9]: 105%
residual activity [10]: 112%
residual activity [11]: 97.8%
residual activity [12]: 119%
residual activity [13]: 93.1% and 94.5%
residual activity [14]: 98.7%
residual activity [15]: 94.9%
residual activity [16]: 97.9%
residual activity [17]: 100%
residual activity [18]: 102%
residual activity [19]: 105%
residual activity [20]: 91.7%
residual activity [21]: 101%
residual activity [22]: 99.5%
residual activity [23]: 104%
residual activity [24]: 108%
residual activity [25]: 101%
residual activity [26]: 95.5%
residual activity [27]: 97.6%
residual activity [28]: 96.3%
residual activity [29]: 103%
residual activity [30]: 106%
residual activity [31]: 104%
residual activity [32]: 86.6%
residual activity [33]: 98.4%
residual activity [34]: 103%
residual activity [35]: 104%
residual activity [36]: 106%
residual activity [37]: 105%
residual activity [38]: 96.6%
residual activity [39]: 100%
residual activity [40]: 95.7%
residual activity [41]: 103%
residual activity [42]: 92.6%

Nc1ncnc2[nH]nc(Nc3ccc(F)cc3)c12
residual activity [1]: 97.7%
residual activity [2]: 107%
residual activity [3]: 98.4%
residual activity [4]: 102%
residual activity [5]: 103%
residual activity [6]: 97.4%
residual activity [7]: 99.5%
residual activity [8]: 119%
residual activity [9]: 105%
residual activity [10]: 92.8%
residual activity [11]: 99.9%
residual activity [12]: 101%
residual activity [13]: 95.7% and 96.9%
residual activity [14]: 98%
residual activity [15]: 95.2%
residual activity [16]: 84.7%
residual activity [17]: 90%
residual activity [18]: 101%
residual activity [19]: 95.6%
residual activity [20]: 98.6%
residual activity [21]: 89.5%
residual activity [22]: 94.3%
residual activity [23]: 99.2%
residual activity [24]: 109%
residual activity [25]: 94%
residual activity [26]: 97.2%
residual activity [27]: 87.3%
residual activity [28]: 90.7%
residual activity [29]: 93%
residual activity [30]: 92.5%
residual activity [31]: 92.4%
residual activity [32]: 101%
residual activity [33]: 95.6%
residual activity [34]: 98.6%
residual activity [35]: 124%
residual activity [36]: 116%
residual activity [37]: 92.3%
residual activity [38]: 87.9%
residual activity [39]: 95.7%
residual activity [40]: 79.5%
residual activity [41]: 93.8%
residual activity [42]: 83.6%
